How the values were obtained:
p23 = target: T1, p23 (Homo sapiens, UniProt Q15185); experiment: Affinity chromatography on EGCG-conjugated Sepharose, in vitro translated p23; format: binding; details: 35S-p23 in vitro translated in RRL
T1 construct: made in house; host or cells: coupled transcription/translation in rabbit reticulocyte lysate (TNT, Promega), 35S-labelled
T1 sequence (Q15185 1-160): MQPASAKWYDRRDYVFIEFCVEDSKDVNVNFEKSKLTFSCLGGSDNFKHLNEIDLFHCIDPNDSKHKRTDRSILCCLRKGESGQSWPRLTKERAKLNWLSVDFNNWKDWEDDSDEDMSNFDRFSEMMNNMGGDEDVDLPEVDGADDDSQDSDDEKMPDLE
Excerpt: Murine AhR and ARNT cDNA (obtained from J. Whitlock and O. Hankinson, respectively) were inserted into pcDNA3 (Invitrogen, Carlsbad, Calif.). Chicken hsp90 constructs (FIG. 5), c90711hsp (wild-type), c90G94D (wild-type point mutant gly94→Asp (Grenert et al., J. Biol. Chem. 272:23843-23850 (1997), which is hereby incorporated by reference in its entirety), c90D92A (wild-type point mutant Asp92→Ala (Sullivan et al., J. Biol. Chem. 268:20373-20379 (1993), which is hereby incorporated by reference in its entirety), c90N221 (wild-type truncation mutant encoding a.a. 221-728 (Sullivan et al., J. Biol. Chem. 268:20373-20379 (1993), which is hereby incorporated by reference in its entirety)), c90N303 (a.a. 303-728) and c90N538 (a.a. 538-728) were kind gifts from Dr. D. Toft (Rochester, Minn.). The C-terminal truncation mutant c900507 (a.a. 1-221) was obtained from Dr. L. Neckers (Rockville, Md.) (Grenert et al., J. Biol. Chem. 272:23843-23850 (1997); Marcu et al., J. Biol. Chem. 275:37181-37186 (2000), which are hereby incorporated by reference in their entirety). Human p23 cDNA was excised from pQE80-p23 (obtained from W. Chan Stockton, Calif.) by sequential digests using the restriction enzymes Sad (3′-end) and BamHI (5′-end) and inserted into the similarly digested pET28a (Novagen, Madison, Wis.). […]

AhR [1] = experiment: Immunocytochemistry of AhR subcellular localization in Hepa cells; format: cell-based, mouse; details: 1 h
Experimental: Hepa cells were plated onto four-well chamber slides (Becton Dickinson, Bedford, Mass.) at a density of 2.0×10^4 and incubated overnight. Cells were treated with either vehicle (DMSO), TCDD (150 pM), EGCG alone (200 μM), or EGCG in the presence of TCDD (150 pM) for 1 h. Cells were fixed with 3.7% formalin at room temperature for 10 minutes, followed by a four minute incubation in anhydrous methanol at 4° C. All antibodies were filtered through a 0.45 micron filter before staining Cells were blocked for one hour in phosphate buffered saline containing 4% BSA, incubated with anti-AhR at a 1:2000 dilution for two hours at room temperature, followed by a one hour incubation with 1:1000 anti-rabbit Alexa-Fluor conjugated secondary antibody (Molecular Probes, Eugene Oreg.). Nuclei were stained with DAPI (0.5 μg/ml) (Molecular Probes) for three minutes at room temperature. Slides were mounted with 50% glycerol and coverslipped. AhR staining and nuclear staining were visualized using a Nikon Eclipse TS110 fluorescent microscope (40× magnification). Fluorescent images were captured using SPOT advanced software.

AhR [2] = format: biochemical, mouse
Experimental: Hepa cytosol (2.5 mg protein/ml) was incubated with a range of concentrations of EGCG (1-200 μM) or EGCG in the presence of 3 nM TCDD for 2 h at room temperature. Treated cytosols (21-25 μg) were mixed with nonspecific DNA (herring sperm), 0.08M NaCl, and 25,000-45,000 cpm of [^32P]-endlabeled oligonucleotide containing a single consensus DRE (Gasiewicz et al., Biochem. Pharmacol. 52:1787-1803 (1996), which is hereby incorporated by reference in its entirety). Samples were subjected to nondenaturing electrophoresis (4% acrylamide) and visualized using a Phosphoimager.

Q: What does the source list for `O=C(O[C@@H]1Cc2c(O)cc(O)cc2O[C@@H]1c1cc(O)c(O)c(O)c1)c1cc(O)c(O)c(O)c1` [EGCG, epigallocatechin gallate]?
A: binding of p23 to immobilized EGCG (p23): incapable of binding immobilized EGCG; effect on TCDD induced nuclear localization of the AhR (AhR [1]; 200 μM EGCG with 150 pM TCDD): did not attenuate this TCDD induced nuclear localization; subcellular localization of the AhR, treatment alone (AhR [1]; EGCG 200 μM or TCDD 150 pM): remarkable redistribution of the AhR from the cytosol to the nucleus; DRE binding, treatment alone (AhR [2]; Hepa cytosol and extracts from treated whole cells, EGCG alone): DRE binding was not observed; inhibition of TCDD-induced AhR-DRE binding (AhR [2]; Hepa cytosol, 100 μM EGCG, 3 nM TCDD, 2 h): ~100%; effect on the TCDD-AhR-DRE shifted band (AhR [2]; Hepa cytosol, EGCG 1-200 μM, 3 nM TCDD): concentration dependent decrease

Source: US20120165403A1, “METHODS OF INHIBITING THE ACTIVITY OF HSP90 AND/OR ARYL HYDROCARBON RECEPTOR” (UNIVERSITY OF ROCHESTER, priority 2004, published 2012)
